Source: ChEMBL document CHEMBL3396948 (Bioorg Med Chem, 2015)
The source made the active and inactive calls. The calls are words filed in the database; no cut-off is given here.

Tests used:
[1] = system: Trypanosoma brucei rhodesiense; assay: Trypanocidal activity against clinical isolate Trypanosoma brucei rhodesiense KETRI 243 assessed as inhibition of trypanosomes after 48 hrs; assay type: functional, organism-based; conditions: KETRI 243, 48 h
[2] = system: Trypanosoma brucei rhodesiense; assay: Trypanocidal activity against clinical isolate Trypanosoma brucei rhodesiense KETRI 269 assessed as inhibition of trypanosomes after 48 hrs; assay type: functional, organism-based; conditions: KETRI 269, 48 h
Saccharomyces cerevisiae = assay: Inhibition of yeast glutathione reductase assessed as reduction of glutathione disulfide up to 250 uM by spectrophotometrically
[3] = system: Trypanosoma brucei rhodesiense; assay: Trypanocidal activity against pentamidine and melarsoprol-resistant Trypanosoma brucei rhodesiense K 243-As-10-3 assessed as inhibition of trypanosomes after 48 hrs; assay type: functional, organism-based; conditions: K 243-As-10-3, 48 h
Mus musculus [4] = assay: Toxicity in drug-sensitive Trypanosoma brucei brucei Lab 110 EATRO infected in female Swiss-Webster mouse assessed as death at 1 to 25 mg/kg, ip once daily for 3 days relative to control; assay type: organism-based; design: dose 1-25 mg/kg, route intraperitoneal; conditions: in vivo, 72 h
[5] = system: Trypanosoma brucei brucei; assay: In vivo trypanocidal activity against drug-sensitive Trypanosoma brucei brucei Lab 110 EATRO infected in female Swiss-Webster mouse assessed as life prolongation at 1 to 25 mg/kg, ip once daily for 3 days relative to control; assay type: functional, organism-based
Trypanothione reductase = Trypanothione reductase (Trypanosoma cruzi, UniProt P28593); assay: Inhibition of Trypanosoma cruzi trypanothione reductase assessed as reduction of trypanothione disulfide by spectrophotometrically
[6] = system: Trypanosoma brucei brucei; assay: Trypanocidal activity against drug-sensitive Trypanosoma brucei brucei Lab 110 EATRO assessed as inhibition of trypanosomes after 48 hrs; assay type: functional, organism-based
Trypanosoma brucei = assay: Trypanocidal activity against bloodstream form of Trypanosoma brucei assessed as inhibition of trypanosomes after 48 hrs; assay type: functional, organism-based
[7] = system: Trypanosoma brucei brucei; assay: In vivo trypanocidal activity against drug-sensitive Trypanosoma brucei brucei Lab 110 EATRO infected in female Swiss-Webster mouse assessed as life prolongation at 50 mg/kg, ip administered in 2 daily doses for 3 days relative to control; assay type: functional, organism-based; design: dose 50 mg/kg
Mus musculus [8] = assay: Toxicity in drug-sensitive Trypanosoma brucei brucei Lab 110 EATRO infected in female Swiss-Webster mouse assessed as death at 50 mg/kg, ip once daily for 3 days relative to control; assay type: organism-based; design: dose 50 mg/kg, route intraperitoneal; conditions: in vivo, 72 h

Sequence of Trypanothione reductase (P28593 whole entry): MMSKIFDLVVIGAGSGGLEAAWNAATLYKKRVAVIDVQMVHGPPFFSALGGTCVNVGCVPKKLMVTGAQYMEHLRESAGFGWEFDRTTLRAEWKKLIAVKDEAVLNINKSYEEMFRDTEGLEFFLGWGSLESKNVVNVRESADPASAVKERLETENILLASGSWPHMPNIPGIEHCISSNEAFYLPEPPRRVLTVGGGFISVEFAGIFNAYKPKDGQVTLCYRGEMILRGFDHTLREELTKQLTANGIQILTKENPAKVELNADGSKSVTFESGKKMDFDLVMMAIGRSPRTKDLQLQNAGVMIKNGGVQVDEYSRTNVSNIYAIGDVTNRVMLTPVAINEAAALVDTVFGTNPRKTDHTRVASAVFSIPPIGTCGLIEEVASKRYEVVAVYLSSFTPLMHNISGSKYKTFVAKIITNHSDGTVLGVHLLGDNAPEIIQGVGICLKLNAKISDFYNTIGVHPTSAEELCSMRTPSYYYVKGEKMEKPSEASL

SMILES | inhibition (Saccharomyces cerevisiae) | Ki (Trypanothione reductase) [µM] | IC50 [1] [µM] | IC50 [2] [µM] | IC50 [3] [µM] | Activity (Mus musculus [4]) | Activity [5] | IC50 [6] [µM] | EC50 (Trypanosoma brucei) [µM] | Activity [7] | Activity (Mus musculus [8])
NCCCCN(CCCN)C1c2ccccc2CCc2ccccc21 | inactive | 4 | 4.5 | 4.3 | 8.3 | Toxic | inactive | 0.62 | – | – | –
CN(C)CCCN1c2ccccc2CCc2ccc(Cl)cc21 [CLOMIPRAMINE] | inactive | – | – | – | – | – | – | – | 5.05 | – | –
NCCCN(CCCCN(CCCN)C1c2ccccc2CCc2ccccc21)C1c2ccccc2CCc2ccccc21 | inactive | 0.255 | 1.5 | 1.69 | 22 | – | – | 2.55 | – | Active | Toxic

Now from value to molecule, other results behind:

inhibition (Saccharomyces cerevisiae) | Ki (Trypanothione reductase) [µM] | SMILES | IC50 [1] [µM] | IC50 [2] [µM] | IC50 [3] [µM] | Activity (Mus musculus [4]) | Activity [5] | IC50 [6] [µM] | EC50 (Trypanosoma brucei) [µM] | Activity [7] | Activity (Mus musculus [8])
inactive | 81.6 | CN(C)CCCNC1c2ccccc2CCc2ccccc21 | – | – | – | – | – | 1.38 | – | – | –
inactive | 7.62 | NCCCN(CCCN)C1c2ccccc2CCc2ccccc21 | – | – | – | – | – | – | – | – | –
inactive | 136 | CN(C)CCNC1c2ccccc2CCc2ccccc21 | 2 | – | – | – | – | 1.68 | – | – | –
inactive | 27.9 | NCCN(CCN)C1c2ccccc2CCc2ccccc21 | – | – | – | – | – | 2.8 | – | – | –
